In publication PMC6627558, “Structures and Bioactivities of Six New Triterpene Glycosides, Psolusosides E, F, G, H, H1, and I and the Corrected Structure of Psolusoside B from the Sea Cucumber Psolus fabricii” (Marine Drugs, 2019):
Counter-ions that a name gives are not always drawn.

How the values were obtained:
[1] = Cytotoxic activity against ascite form of mouse Ehrlich carcinoma cells (nonspecific esterase / MTT assay); format: cell-based; details: ascite form of mouse Ehrlich carcinoma cells; read-out: Cytotoxicity EC50, Ehrlich carcinoma
Experimental: (§1) The museum tetraploid strain of murine ascite Ehrlich carcinoma cells from the All-Russian Oncology Center (Moscow, Russia) was used. The cells were separated from the ascites, which were collected on day 7 after inoculation in mouse CD-1 line. The cells were washed of the ascites triply and resuspended in RPMI-1640 medium containing 8 μg/mL gentamicin (BioloT, St-Petersburg, Russia). Neuroblastoma Neuro 2A cells were cultured in DMEM medium containing 10% fetal bovine serum (FBS), (BioloT, St-Petersburg, Russia) and normal epithelial JB-6 cells were cultured in DMEM medium containing 5% fetal bovine serum (FBS), (BioloT, St-Petersburg, Russia) and 1% penicillin/streptomycine (Invitrogen). The HT-29 (ATCC # HTB-38) human colon cancer cell line was grown in monolayer in McCoy’s 5A medium supplemented with 10% (v/v) heat-inactivated FBS, 2 mM L-glutamine, and 1% penicillin-streptomycin in a humidified atmosphere containing 5% CO2. Cells were maintained in a sterile environment and kept in an incubator at 5% CO2 and 37 °C to promote growth. HT-29 cells were sub-cultured every 3–4 days by rinsing with phosphate buffered saline (PBS), adding trypsin to detach the cells from the tissue culture flask, and transferring 10%–20% of the harvested cells to a new flask containing fresh growth media.
(§2) Cytotoxic activity against ascite form of mouse Ehrlich carcinoma cells was investigated by nonspecific esterase activity assay. In total, 10µL of the test substance solution and 100 μL of the cell suspension were placed into each well of a 96-well microplate. The plate was incubated in a CO2 incubator at 37 °C for 1 or 24 h. A stock solution of the probe fluorescein diacetate (FDA; Sigma, St. Louis, MO, USA) in DMSO (1 mg/mL) was prepared. After incubation of the cells with test compounds, 10 μL of FDA solution (50 μg/mL) was added to each well and the plate was incubated at 37 °C for 15 min. Cells were washed with PBS, and fluorescence was measured with a Fluoroskan Ascent plate reader (Thermo Labsystems, Helsinky, Finland) at λex = 485 nm and λem = 518 nm. All experiments were repeated in triplicate. Cytotoxic activity was expressed as the percent of cell viability. Nonspecific esterase activity assay has been used for determination of cytotoxicity against neuroblastoma Neuro 2A and normal epithelial JB-6 cells.
The solutions of tested substances in different concentrations (20 µL) and cell suspension (200 µL) were added in wells of 96-well plate and incubated over night at 37 °C and 5% CO2. After incubation, the cells were sedimented by centrifugation, 200 µL of medium from each well were collected, and 100 µL of pure medium were added. Then, 10 µL of MTT solution […] (Sigma, St. Louis, MO, USA) were added in each well. The plate was incubated for 4 h, after which 100 µL SDS-HCl were added to each well, and the plate was incubated at 37 °C for 4–18 h. Optical density was measured at 570 nm and 630–690 nm. Cytotoxic activity of the substances was calculated as the concentration that caused 50% metabolic cell activity inhibition (IC50). The MTT assay has been used for determination of cytotoxic activity against Ehrlich carcinoma cells.

[2] = tested on: human colorectal adenocarcinoma HT-29 cells; assay: Soft agar assay, colony formation and growth of HT-29 cells; format: cell-based; details: Homo sapiens, 336 h, 0–10 μM, 14 days, read-out: Soft Agar Assay ICCF50 (inhibition of colony formation)
Experimental: as §1
The HT-29 cells (8.0 × 10^3) were seeded in 6-well plate and treated with the tested compounds at concentrations range 0–10 μM in 1 mL of 0.3% Basal Medium Eagle (BME) agar containing 10% FBS, 2mM L-glutamine, and 25 μg/mL gentamicin. The cultures were maintained at 37 °C in a 5% CO2 incubator for 14 days, and the cell’s colonies were scored using a microscope “Motic AE 20” (Scientific Instrument Company, Campbell, CA, USA) and the Motic Image Plus version 2.0 (Scientific Instrument Company, Campbell, CA, USA) computer program.

[3] = Hemolytic activity against mouse erythrocytes; format: cell-based; details: CD-1, mouse erythrocyte suspension, pH 7.4, 24 h at 37 °C, read-out: Cytotoxicity EC50, Erhythrocytes (hemolytic activity)
Experimental: Blood was taken from CD-1 mice (18–20 g). The mice were anesthetized with diethyl ether, their chests were rapidly opened, and blood was collected in cold (4 °C) 10 mM phosphate-buffered saline, pH 7.4 (PBS) without anticoagulant. Erythrocytes were washed 3 times in PBS using at least 10 vol. of washing solution by centrifugation (2000 rpm) for 5 min. Erythrocytes were used at a concentration that provided an optical density of 1.0 at 700 nm for a non-hemolyzed sample. Then, 20 μL of a water solution of test substance with a fixed concentration was added to a well of a 96-well plate containing 180 μL of the erythrocyte suspension. Erythrocyte suspension was incubated with substances for 24 h at 37 °C. After that, the optical density of the obtained solutions was measured and ED50 for hemolytic activity of each compound was calculated.

[4] = tested on: human colorectal adenocarcinoma HT-29 cells; assay: MTS assay, cell viability of HT-29 cells; format: cell-based; details: Homo sapiens, 0–20 μM, 24 h
Experimental: as §1
The HT-29 cells (1.0 × 10^4/well) were seeded in 96-well plates for 24 h at 37 °C in 5% CO2 incubator. The cells were treated with the tested substances at concentrations range from 0 to 20 μM for an additional 24 h. Subsequently, cells were incubated with 15 μL MTS reagent for 3 h and the absorbance in each well was measured at 490/630 nm using microplate reader “Power Wave XS” (Bio Tek, Winooski, VT, USA). All the experiments were repeated three times, and the mean absorbance values were calculated. The results are expressed as the percentage of inhibition that produced a reduction in absorbance by compound’s treatment compared to the non-treated cells (control).

[5] = Cytotoxicity against neuroblastoma Neuro 2A cells (nonspecific esterase activity assay); format: cell-based, mouse; details: mouse neuroblastoma Neuro 2A cells
Experimental: as §1, §2

[6] = Cytotoxicity against normal epithelial JB-6 cells (nonspecific esterase activity assay); format: cell-based, mouse; details: mouse, normal epithelial JB-6 cells
Experimental: as §1, §2

SMILES | EC50 [1] | IC50 [2] | EC50 at 24 h [3] | IC50 [4] | EC50 [5] | EC50 [6]
C=C(C)CCC[C@]1(C)OC(=O)[C@]23CC=C4[C@@H](CC[C@H]5C(C)(C)[C@@H](O[C@@H]6OC[C@@H](O)[C@H](O)[C@H]6O[C@@H]6O[C@H](C)[C@@H](O[C@@H]7O[C@H](COS(=O)(=O)O)[C@@H](O)[C@H](O[C@@H]8O[C@H](CO)[C@@H](O)[C@H](OC)[C@H]8O)[C@H]7O)[C@H](O)[C@H]6O)CC[C@]45C)[C@]2(C)CC(=O)[C@@H]31 [Psolusoside E (2), 3β-O-[3-O-methyl-β-D-glucopyranosyl-(1→3)-6-O-sodium-sulfate-β-D-glucopyranosyl-(1→4)-β-D-quinovopyranosyl-(1→2)-β-D-xylopyranosyl]-16-ketoholosta-9(11),25-diene] | 55.8 µM | 0.1 ± 0.03 µM | 0.23 µM | > 20 µM | 3.96 µM | 
C=C(C)CCC[C@]1(C)OC(=O)[C@]23CC=C4[C@@H](CC[C@H]5C(C)(C)[C@@H](O[C@@H]6OC[C@@H](O)[C@H](O)[C@H]6O[C@@H]6O[C@H](C)[C@@H](O[C@@H]7O[C@H](CO)[C@@H](O)[C@H](O[C@@H]8O[C@H](COS(=O)(=O)O)[C@@H](O)[C@H](OC)[C@H]8O)[C@H]7O)[C@H](O)[C@H]6O)CC[C@]45C)[C@]2(C)CC(=O)[C@@H]31 [Psolusoside F (3), 3β-O-[6-O-sodium-sulfate-3-O-methyl-β-D-glucopyranosyl-(1→3)-β-D-glucopyranosyl-(1→4)-β-D-quinovopyranosyl-(1→2)-β-D-xylopyranosyl]-16-ketoholosta-9(11),25-diene] | 96.2 µM | 0.5 ± 0.03 µM | 2.8 µM | > 20 µM | 10.8 µM | 23.8 µM
C=C(C)CCC[C@]1(C)OC(=O)[C@]23CC[C@@H]4C(=CC[C@H]5C(C)(C)[C@@H](O[C@@H]6OC[C@@H](O)[C@H](O)[C@H]6O[C@@H]6O[C@H](CO)[C@@H](O[C@@H]7O[C@H](COS(=O)(=O)O)[C@@H](O)[C@H](O)[C@H]7O)[C@H](O)[C@H]6O)CC[C@]45C)[C@]2(C)CC[C@@H]31 [Psolusoside H1 (6), 3β-O-[6-O-sodium-sulfate-β-D-glucopyranosyl-(1→4)-β-D-glucopyranosyl-(1→2)-β-D-xylopyranosyl]-holosta-7,25-diene] | 92.5 µM | 9 ± 0.3 µM | 2.7 µM | > 20 µM | 10.7 µM | 32.3 µM
C=C(C)CCC[C@]1(C)OC(=O)[C@]23CC[C@@H]4C(=CC[C@H]5C(C)(C)[C@@H](O[C@@H]6OC[C@@H](O)[C@H](O)[C@H]6O[C@@H]6O[C@H](CO)[C@@H](O[C@@H]7O[C@H](COS(=O)(=O)O)[C@@H](O)[C@H](O)[C@H]7O)[C@H](O)[C@H]6O)CC[C@]45C)[C@]2(C)CC(=O)[C@@H]31 [Psolusoside H (5), 3β-O-[6-O-sodium-sulfate-β-D-glucopyranosyl-(1→4)-β-D-glucopyranosyl-(1→2)-β-D-xylopyranosyl]-16-ketoholosta-7,25-diene] | > 100 µM | > 10 µM | 2.5 µM | > 20 µM | 47.5 µM | 43.2 µM
C=C(C)CCC[C@](C)(OC(C)=O)[C@H]1[C@@H]2C[C@@]3(C)C4=CC[C@H]5C(C)(C)[C@@H](O[C@@H]6OC[C@@H](O[C@@H]7O[C@H](CO)[C@@H](O)[C@H](O)[C@H]7OS(=O)(=O)O)[C@H](O)[C@H]6O[C@@H]6O[C@H](CO)[C@@H](O[C@@H]7O[C@H](COS(=O)(=O)O)[C@@H](O)[C@H](O)[C@H]7O)[C@H](O)[C@H]6O)CC[C@]5(C)[C@@H]4CC[C@]13C(=O)O2 [psolusoside B (1), 3β-O-{6-O-sodium sulfate-β-D-glucopyranosyl-(1→4)-β-D-glucopyranosyl-(1→2)-[2-O-sodium sulfate-β-D-glucopyranosyl-(1→4)]-β-D-xylopyranosyl}-9βH,20(S)-acetoxylanosta-7,25-diene-18(16)-lactone] |  | > 10 µM |  | > 20 µM |  | 
